Biological target: T1, BK channels (Oryctolagus cuniculus, UniProt Q9BG98)
T1 construct: wherein the native BK channels were more sensitive to Ca^2+; from tissue
Test: Single channel recordings, inside-out patch clamp, voltage ramps, isolated smooth muscle cells of the rabbit bladder
Assay type: cell-based
Conditions: for effect on BK channel activity, in words (SAR discussion based on V1/2 data): inside out patches on rabbit smooth muscle cells
Description: All experiments were approved by the Dundalk Institute of Technology Animal Care and Use Committee. […] The urinary bladder and most proximal 1.5 cm of the urethra was removed and placed in Krebs solution. Strips of bladder tissue, 0.5 cm in width were dissected, cut into 1 mm^3 pieces and stored in Ca^2+-free Hanks' solution for 30 min prior to cell dispersal. Tissue pieces were incubated in dispersal medium containing (per 5 ml) of Ca^2+-free Hanks' solution: 15 mg collagenase (Sigma type 1A), 1 mg protease (Sigma type XXIV), 10 mg bovine serum albumin (Sigma) and 10 mg trypsin inhibitor (Sigma) for 10-15 min at 37° C. Tissue was then transferred to Ca^2+-free Hanks' solution and stirred for a further 10-15 min to release single smooth muscle cells. These were plated in Petri dishes containing 100 μM Ca^2+ Hanks' solution and stored at 4° C. for use within 8 h. During experiments, the dish containing the cells was continuously perfused with Hanks' solution at 36±1° C. Additionally the cell under study was continuously superfused by means of a custom built close delivery system with a pipette of tip diameter 200 μm placed approximately 300 μm from the cell. The high K^+ solution in the close delivery system could be switched to a drug-containing solution with a dead space time of less than 5 s.
For whole cell recordings pipettes were pulled from borosilicate glass capillary tubing (1.5 mm outer diameter, 1.17 mm inner diameter; Clark Medical Instruments) to a tip of diameter approximately 1-1.5 μm and resistance of 2-4 Mohms. For single channel recordings, pipettes were pulled from borosilicate glass capillary tubing (1.5 mm outer diameter, 0.8 mm inner diameter; Clark Medical Instruments) and fire polished before use. Voltage clamp commands were delivered via an Axopatch 1D or Axon 200B patch clamp amplifiers (Axon Instruments) and membrane currents were recorded by a 12 bit AD/DA converter (Axodata 1200 or Labmaster, Scientific Solutions) interfaced to an Intel computer running pCLAMP software.
All values in (mM): KCl, 140. Glucose, 10, EGTA 1 and HEPES, 10. For free Ca^2+ greater than 300 nM: All values in (mM): KCl, 140. Glucose, 10, H-EDTA 1 and HEPES, 10. The same solution composition is used in the bath as in the patch pipette for these experiments except that the pipette solution contained 100 nM Ca^2+.
In single channel experiments voltage commands were applied using pClamp ramped potentials. This allowed more efficient measurement of slope conductance and channel activation than conventional step depolarisations. Activation curves were calculated by averaging current responses to 15 potential ramps and dividing each data point of the averaged current by the single channel amplitude at that holding potential, after leakage current correction. […] This analysis provides a continuous recording of the number of open channels multiplied by the open probability (NPo) over the entire voltage range. To obtain values for the steepness of the voltage-dependent activation and half-maximal activation voltage, activation curves were fitted with Boltzman functions of the form: NPo=n/{1+exp[−K(V−V1/2)]} where N is the number of channels in the patch, n is the maximal NPo level, K^−1 is the steepness of the voltage-dependent activation (change in potential necessary to cause an e-fold increase in activation) and V1/2 is the voltage at which there is half-maximal activation. Again, all of the experiments were carried out at 36±1° C.
The patches were held at a potential of −100 mV and voltage ramps were then applied from −100 mV up to +100 mV over 2 s.
Patches were held at −100 mV and ramped through to +100 mV and each sweep was repeated 15 times. The same protocol was repeated after the patch was incubated in 1 μM Ca^2+.

[1] = Table 1, 10 μM compound, inside-out patch, V1/2 control vs drug
[2] = Table 2, 10 μM compound, inside-out patch

T1 sequence (Q9BG98 whole entry): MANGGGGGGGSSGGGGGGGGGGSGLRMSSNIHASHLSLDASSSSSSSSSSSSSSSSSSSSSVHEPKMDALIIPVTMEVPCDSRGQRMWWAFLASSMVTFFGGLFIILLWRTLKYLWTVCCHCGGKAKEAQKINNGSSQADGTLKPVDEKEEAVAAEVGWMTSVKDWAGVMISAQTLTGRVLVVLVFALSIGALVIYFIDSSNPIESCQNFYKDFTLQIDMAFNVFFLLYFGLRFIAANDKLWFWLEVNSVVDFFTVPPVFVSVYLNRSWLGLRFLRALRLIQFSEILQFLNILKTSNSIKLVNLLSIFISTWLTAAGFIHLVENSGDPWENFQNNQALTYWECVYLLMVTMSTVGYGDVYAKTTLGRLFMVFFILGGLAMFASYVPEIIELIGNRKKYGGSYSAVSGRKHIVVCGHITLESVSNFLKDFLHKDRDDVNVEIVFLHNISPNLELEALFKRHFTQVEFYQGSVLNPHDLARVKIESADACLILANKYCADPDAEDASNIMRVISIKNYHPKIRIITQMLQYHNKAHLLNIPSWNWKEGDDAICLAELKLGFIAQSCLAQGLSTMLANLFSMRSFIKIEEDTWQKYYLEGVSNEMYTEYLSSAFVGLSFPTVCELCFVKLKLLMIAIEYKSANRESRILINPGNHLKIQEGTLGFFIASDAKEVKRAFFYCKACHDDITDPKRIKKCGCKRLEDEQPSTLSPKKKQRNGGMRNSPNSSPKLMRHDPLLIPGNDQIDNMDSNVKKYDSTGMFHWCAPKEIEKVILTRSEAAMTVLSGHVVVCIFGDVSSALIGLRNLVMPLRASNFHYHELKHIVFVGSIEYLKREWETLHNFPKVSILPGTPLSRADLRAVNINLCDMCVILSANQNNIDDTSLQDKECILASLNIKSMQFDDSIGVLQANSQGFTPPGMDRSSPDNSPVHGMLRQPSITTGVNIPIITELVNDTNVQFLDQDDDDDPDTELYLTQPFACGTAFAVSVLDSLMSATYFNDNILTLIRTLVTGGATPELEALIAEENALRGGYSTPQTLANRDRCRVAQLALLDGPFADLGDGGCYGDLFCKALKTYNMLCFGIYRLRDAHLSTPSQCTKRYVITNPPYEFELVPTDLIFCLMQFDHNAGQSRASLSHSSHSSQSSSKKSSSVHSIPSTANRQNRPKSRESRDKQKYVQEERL

SMILES | ΔV1/2 (mV) in 100 nm Ca^2+ [1] [mV] | effect on BK channel activity, in words (SAR discussion based on V1/2 data) | also measured
Nc1c(S(=O)(=O)[O-])cc(NC2CCCCC2)c2c1C(=O)c1ccccc1C2=O.[Na+] [Acid Blue 62, sodium 1-amino-4-(cyclohexylamino)-9,10-dioxo-9,10-dihydroanthracene-2-sulfonate] | −54.37 | – | –
Nc1c(S(=O)(=O)O)cc(Br)c2c1C(=O)c1ccccc1C2=O [Bromaminic acid, reference compound] | – | inhibitory effect | –
C=C(C)[C@H]1O[C@H]2CC[C@@]3(C)[C@@](O)(CC[C@H]4[C@@H]5OC(C)(C)[C@H]6C[C@@H]7C(=C)Cc8c(Cl)cc9[nH]c(c5c9c8[C@@]76O)[C@@]43C)[C@@]23O[C@H]3[C@H]1O [Penitrem A, reference compound] | – | – | effect on single channel openings (100 nM, 1 μM Ca2+, voltage ramp): abolished the single channel openings
Nc1c(S(=O)(=O)[O-])cc(NC2CCCC2)c2c1C(=O)c1ccccc1C2=O.[Na+] [SR-5-8, sodium 1-amino-4-(cyclopentylamino)-9,10-dioxo-9,10-dihydroanthracene-2-sulfonate] | −24.24 | – | –
COc1ccccc1Nc1cc(S(=O)(=O)[O-])c(N)c2c1C(=O)c1ccccc1C2=O.[Na+] [SR-5-12, sodium 1-amino-4-(2-methoxyphenylamino)-9,10-dioxo-9,10-dihydroanthracene-2-sulfonate] | −54.1 | – | –
Nc1c(S(=O)(=O)[O-])cc(Nc2cc(F)cc(F)c2)c2c1C(=O)c1ccccc1C2=O.[Na+] [SR-5-14, sodium 1-amino-4-(3,5-difluorophenylamino)-9,10-dioxo-9,10-dihydroanthracene-2-sulfonate] | −24.2 | – | –
Nc1c(S(=O)(=O)[O-])cc(Nc2cccc(F)c2)c2c1C(=O)c1ccccc1C2=O.[Na+] [SR-5-15, sodium 1-amino-4-(3-fluorophenylamino)-9,10-dioxo-9,10-dihydroanthracene-2-sulfonate] | −28.4 | – | –
Nc1c(S(=O)(=O)[O-])cc(Nc2cccc(S(=O)(=O)O)c2)c2c1C(=O)c1ccccc1C2=O.[Na+] [SR-5-18, sodium 1-amino-9,10-dioxo-4-(3-sulfophenylamino)-9,10-dihydroanthracene-2-sulfonate] | −23.2 | decreases the activity dramatically | –
Cc1cccc(Nc2cc(S(=O)(=O)[O-])c(N)c3c2C(=O)c2ccccc2C3=O)c1.[Na+] [SR-5-26, sodium 4-(m-toluidino)-1-amino-9,10-dioxo-9,10-dihydroanthracene-2-sulfonate] | −53.5 | – | –
Nc1c(S(=O)(=O)[O-])cc(Nc2ccc(F)c(C(F)(F)F)c2)c2c1C(=O)c1ccccc1C2=O.[Na+] [SR-5-28, sodium 1-amino-4-(4-fluoro-3-(trifluoromethyl)phenylamino)-9,10-dioxo-9,10-dihydroanthracene-2-sulfonate] | −83.2 | – | –
CCc1cccc(Nc2cc(S(=O)(=O)[O-])c(N)c3c2C(=O)c2ccccc2C3=O)c1.[Na+] [SR-5-31, sodium 1-amino-4-(3-ethylphenylamino)-9,10-dioxo-9,10-dihydroanthracene-2-sulfonate] | −87.1 | – | –
Nc1c(S(=O)(=O)[O-])cc(NC2CCCCCC2)c2c1C(=O)c1ccccc1C2=O.[Na+] [SR-5-32, sodium 1-amino-4-(cycloheptylamino)-9,10-dioxo-9,10-dihydroanthracene-2-sulfonate] | −61.1 | – | –
Nc1c(S(=O)(=O)[O-])cc(Nc2cccc(OC(F)(F)F)c2)c2c1C(=O)c1ccccc1C2=O.[Na+] [SR-5-34, sodium 1-amino-9,10-dioxo-4-(3-(trifluoromethoxy)phenylamino)-9,10-dihydroanthracene-2-sulfonate] | −84.0 | – | –
Nc1c(S(=O)(=O)[O-])cc(Nc2ccc(Cc3ccccc3)cc2)c2c1C(=O)c1ccccc1C2=O.[Na+] [SR-5-37, sodium 1-amino-4-(4-benzylphenylamino)-9,10-dioxo-9,10-dihydroanthracene-2-sulfonate] | −77.8 | BK channel openers | –
Nc1c(S(=O)(=O)[O-])cc(Nc2ccc(Cl)c(C(F)(F)F)c2)c2c1C(=O)c1ccccc1C2=O.[Na+] [SR-5-40, sodium 1-amino-4-(4-chloro-3-(trifluoromethyl)phenylamino)-9,10-dioxo-9,10-dihydroanthracene-2-sulfonate] | −97.8 | – | –
Cc1ccc(Nc2cc(S(=O)(=O)[O-])c(N)c3c2C(=O)c2ccccc2C3=O)cc1C(F)(F)F.[Na+] [SR-5-44, sodium 1-amino-4-(4-methyl-3-(trifluoromethyl)phenylamino)-9,10-dioxo-9,10-dihydroanthracene-2-sulfonate] | −145.4 | – | –
Nc1c(S(=O)(=O)[O-])cc(Nc2cccc(O)c2)c2c1C(=O)c1ccccc1C2=O.[Na+] [SR-5-53, sodium 1-amino-4-((3-hydroxyphenyl)amino)-9,10-dioxo-9,10-dihydroanthracene-2-sulfonate] | – | – | ΔV1/2 (mV) in 100 nm Ca^2+ [2]: −44.1 mV
CC(C)c1cccc(Nc2cc(S(=O)(=O)[O-])c(N)c3c2C(=O)c2ccccc2C3=O)c1.[Na+] [SR-5-63, sodium 1-amino-4-((3-isopropylphenyl)amino)-9,10-dioxo-9,10-dihydroanthracene-2-sulfonate] | – | BK channel agonists | ΔV1/2 (mV) in 100 nm Ca^2+ [2]: −113.1 mV
Nc1c(S(=O)(=O)[O-])cc(Nc2ccc3c(c2)CCC3)c2c1C(=O)c1ccccc1C2=O.[Na+] [SR-5-64, sodium 1-amino-4-((2,3-dihydro-1H-inden-5-yl)amino)-9,10-dioxo-9,10-dihydroanthracene-2-sulfonate] | – | – | ΔV1/2 (mV) in 100 nm Ca^2+ [2]: −87.6 mV
Nc1c(S(=O)(=O)[O-])cc(Nc2cccc3c2CCCC3)c2c1C(=O)c1ccccc1C2=O.[Na+] [SR-5-65, sodium 1-amino-9,10-dioxo-4-((5,6,7,8-tetrahydronaphthalen-1-yl)amino)-9,10-dihydroanthracene-2-sulfonate] | – | potent BK channel activator | ΔV1/2 (mV) in 100 nm Ca^2+ [2]: −116.2 mV
Nc1c(S(=O)(=O)[O-])cc(Nc2cccc3ccccc23)c2c1C(=O)c1ccccc1C2=O.[Na+] [SR-5-66] | – | potency was dropped substantially | ΔV1/2 (mV) in 100 nm Ca^2+ [2]: −53.4 mV
Nc1c(S(=O)(=O)[O-])cc(Nc2cccc(Cc3ccccc3)c2)c2c1C(=O)c1ccccc1C2=O.[Na+] [SR-5-68, sodium 1-amino-4-((3-benzylphenyl)amino)-9,10-dioxo-9,10-dihydroanthracene-2-sulfonate] | – | BK channel agonists | ΔV1/2 (mV) in 100 nm Ca^2+ [2]: −120.0 mV
Nc1c(S(=O)(=O)[O-])cc(Nc2ccc3c(c2)CCCC3)c2c1C(=O)c1ccccc1C2=O.[Na+] [SR-5-69, sodium 1-amino-9,10-dioxo-4-((5,6,7,8-tetrahydronaphthalen-2-yl)amino)-9,10-dihydroanthracene-2-sulfonate] | – | dramatic increase in the activity | shift in the activation V1/2 (30 nM, example patch of FIG. 8A): very small shift; shifted the V1/2 by (1 μM): 110 mV; V1/2 reached in the presence of the drug (1 μM, example patch of FIG. 8A): approximately +5 mV; shift of the V1/2 (1 μM, example patch of FIG. 8A, hyperpolarising direction): > −100 mV; ΔV1/2 (mV) in 100 nm Ca^2+ (Table 2, 1 μM compound, inside-out patch): −101.6 mV; dose dependence of effects on open probability and ΔV1/2 for BK channels (increasing concentrations, inside-out patch): dose-dependent; EC50 (n=4-6 patches containing BK channels, read-out: mean EC50 (Langmuir fit of mean V1/2 against concentration)): 95 nM

— patent publication US9877940B2, “Anthraquinone compounds and their uses” (DUNDALK INSTITUTE OF TECHNOLOGY, priority 2010, dated 2018)
